In the experiment the target is T1, Aurora B (Homo sapiens, UniProt Q96GD4).
T1 construct: cell lysates from Jurkat cells (ATCC TIB-152) used; endogenous in cells; host or cells: Jurkat cells (ATCC TIB-152), treated with pervanadate
The experiment in a line: Kinobeads assay, Aurora B. Type of experiment: binding. The settings on record: for IC50: lysate of pervanadate-treated Jurkat cells, read-out: Inhibition values (IC50) Aur B.

The source of these data is patent US9040545B2, “Heterocyclyl pyrazolopyrimidine analogues as selective JAK inhibitors” (Cellzome Limited, priority 2010, dated 2015).

Molecules are shown by their SMILES.

T1 sequence (Q96GD4 whole entry): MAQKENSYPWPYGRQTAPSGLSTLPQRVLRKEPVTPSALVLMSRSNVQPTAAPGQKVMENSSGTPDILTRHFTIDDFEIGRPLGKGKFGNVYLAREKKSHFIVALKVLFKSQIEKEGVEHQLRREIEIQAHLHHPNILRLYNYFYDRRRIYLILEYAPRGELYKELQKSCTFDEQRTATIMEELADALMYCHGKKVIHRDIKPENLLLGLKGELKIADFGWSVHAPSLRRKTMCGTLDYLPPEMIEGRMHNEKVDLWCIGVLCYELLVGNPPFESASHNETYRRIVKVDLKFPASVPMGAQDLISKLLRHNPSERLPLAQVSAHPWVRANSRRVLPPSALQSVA

Turning to `Cn1cc(Nc2ncc3cnn(Cc4c(F)ccc(N5CCOCC5=O)c4F)c3n2)cn1` [Example 69, 4-(2,4-Difluoro-3-((6-((1-methyl-1H-pyrazol-4-yl)amino)-1H-pyrazolo[3,4-d]pyrimidin-1-yl)methyl)phenyl)morpholin-3-one], the “JAK3/AurB Fold Selectivity” value is 10-50 Fold and the half-maximal inhibitory concentration (IC50) (commonly the concentration that inhibits the measured activity by half) lay within 100 to 1000 nM.

Consider `CN(C)CCCn1cc(Nc2ncc3cnn(Cc4c(F)c(F)cc(N5CCOCC5=O)c4F)c3n2)cn1` [Example 70, 4-(3-((6-((1-(3-(Dimethylamino)propyl)-1H-pyrazol-4-yl)amino)-1H-pyrazolo[3,4-d]pyrimidin-1-yl)methyl)-2,4,5-trifluorophenyl)morpholin-3-one], for which the “JAK3/AurB Fold Selectivity” value is 10-50 Fold and the IC50 was in the range of 100 to 1000 nM.

In the case of `Cn1cc(Nc2ncc3cnn(Cc4cc(N5CCNCC5=O)cc(F)c4F)c3n2)cn1` [Example 71, 1-(3,4-Difluoro-5-((6-((1-methyl-1H-pyrazol-4-yl)amino)-1H-pyrazolo[3,4-d]pyrimidin-1-yl)methyl)phenyl)piperazin-2-one], the “JAK3/AurB Fold Selectivity” value was 10-50 Fold and the 50% inhibitory concentration (IC50) fell in the range of 100 to 1000 nM.

For `O=C1CNCCN1c1cc(F)c(F)c(Cn2ncc3cnc(Nc4cnn(CCO)c4)nc32)c1` [Example 72, 1-(3,4-Difluoro-5-((6-((1-(2-hydroxyethyl)-1H-pyrazol-4-yl)amino)-1H-pyrazolo[3,4-d]pyrimidin-1-yl)methyl)phenyl)piperazin-2-one], the “JAK3/AurB Fold Selectivity” value was 10-50 Fold and the half-inhibitory concentration (IC50) was in the range of 100 to 1000 nM.

Take `Cn1cc(Nc2ncc3cnn(Cc4cc(F)cc(N5CCOCC5=O)c4F)c3n2)cn1` [Example 73, 4-(2,5-Difluoro-3-((6-((1-methyl-1H-pyrazol-4-yl)amino)-1H-pyrazolo[3,4-d]pyrimidin-1-yl)methyl)phenyl)morpholin-3-one]: the “JAK3/AurB Fold Selectivity” value was 10-50 Fold and the concentration for half-maximal inhibition (IC50) lay in the range of 100 to 1000 nM.

With `O=C1COCCN1c1cc(F)cc(Cn2ncc3cnc(Nc4cnn(CCO)c4)nc32)c1F` [Example 74, 4-(2,5-Difluoro-3-((6-((1-(2-hydroxyethyl)-1H-pyrazol-4-yl)amino)-1H-pyrazolo[3,4-d]pyrimidin-1-yl)methyl)phenyl)morpholin-3-one], the “JAK3/AurB Fold Selectivity” value was 10-50 Fold and the IC50 was below 100 nM.

Turning to `CN(C)CCCn1cc(Nc2ncc3cnn(Cc4c(F)ccc(N5CCOCC5=O)c4F)c3n2)cn1` [Example 75, 4-(3-((6-((1-(3-(Dimethylamino)propyl)-1H-pyrazol-4-yl)amino)-1H-pyrazolo[3,4-d]pyrimidin-1-yl)methyl)-2,4-difluorophenyl)morpholin-3-one], the “JAK3/AurB Fold Selectivity” value is 3-10 Fold and the IC50 was below 100 nM.

With `Cn1cc(Nc2ncc3cnn(Cc4c(F)ccc(N5CCNCC5=O)c4F)c3n2)cn1` [Example 76, 1-(2,4-Difluoro-3-((6-((1-methyl-1H-pyrazol-4-yl)amino)-1H-pyrazolo[3,4-d]pyrimidin-1-yl)methyl)phenyl)piperazin-2-one], the “JAK3/AurB Fold Selectivity” value is listed as 3-10 Fold and the concentration for half-maximal inhibition (IC50) was 100 to 1000 nM.

Regarding `COC1CCN(c2cccc(Cn3ncc4cnc(Nc5cnn(C)c5)nc43)c2)CC1` [Example 77, 1-(3-(4-Methoxypiperidin-1-yl)benzyl)-N-(1-methyl-1H-pyrazol-4-yl)-1H-pyrazolo[3,4-d]pyrimidin-6-amine], the “JAK3/AurB Fold Selectivity” value was 3-10 Fold and the IC50 was in the range of 100 to 1000 nM.

Take `OCCn1cc(Nc2ncc3cnn(Cc4cc(N5CCNCC5)cc(F)c4F)c3n2)cn1` [Example 78, 2-(4-((1-(2,3-Difluoro-5-(piperazin-1-yl)benzyl)-1H-pyrazolo[3,4-d]pyrimidin-6-yl)amino)-1H-pyrazol-1-yl)ethanol]: the “JAK3/AurB Fold Selectivity” value was 3-10 Fold and the IC50 is below 100 nM.

On to `Cn1cc(Nc2ncc3cnn(Cc4cc(F)cc(C(=O)N5CCOCC5)c4)c3n2)cn1` [Example 79, (3-Fluoro-5-((6-((1-methyl-1H-pyrazol-4-yl)amino)-1H-pyrazolo[3,4-d]pyrimidin-1-yl)methyl)phenyl)(morpholino)methanone], for which the “JAK3/AurB Fold Selectivity” value was above 50 Fold and the IC50 was in the range of 1000 to 10000 nM.

Turning to `Cn1cc(Nc2ncc3cnn(Cc4cc(F)cc(C(=O)N5CCNCC5)c4)c3n2)cn1` [Example 80, (3-Fluoro-5-((6-((1-methyl-1H-pyrazol-4-yl)amino)-1H-pyrazolo[3,4-d]pyrimidin-1-yl)methyl)phenyl)(piperazin-1-yl)methanone], the “JAK3/AurB Fold Selectivity” value is reported as 10-50 Fold and the IC50 is 100 to 1000 nM.

On to `Fc1cc(N2CCOCC2)c(F)c(Cn2ncc3cnc(Nc4cn[nH]c4)nc32)c1F` [Example 81, N-(1H-Pyrazol-4-yl)-1-(2,3,6-trifluoro-5-morpholinobenzyl)-1H-pyrazolo[3,4-d]pyrimidin-6-amine], for which the “JAK3/AurB Fold Selectivity” value is 10-50 Fold and the IC50 was 100 to 1000 nM.

With `OCCn1cc(Nc2ncc3cnn(Cc4c(F)ccc(N5CCOCC5)c4F)c3n2)cn1` [Example 82, 2-(4-((1-(2,6-Difluoro-3-morpholinobenzyl)-1H-pyrazolo[3,4-d]pyrimidin-6-yl)amino)-1H-pyrazol-1-yl)ethanol], the “JAK3/AurB Fold Selectivity” value is recorded as 3-10 Fold and the 50% inhibitory concentration (IC50) was below 100 nM.

`OCCn1cc(Nc2ncc3cnn(Cc4cccc(N5CCNCC5)c4F)c3n2)cn1` [Example 83, 2-(4-((1-(2-Fluoro-3-(piperazin-1-yl)benzyl)-1H-pyrazolo[3,4-d]pyrimidin-6-yl)amino)-1H-pyrazol-1-yl)ethanol]: the “JAK3/AurB Fold Selectivity” value is given as 3-10 Fold and the IC50 is below 100 nM.

On to `O=C1COCCN1c1cc(F)cc(Cn2ncc3cnc(Nc4cn[nH]c4)nc32)c1` [Example 84, 4-(3-((6-((1H-Pyrazol-4-yl)amino)-1H-pyrazolo[3,4-d]pyrimidin-1-yl)methyl)-5-fluorophenyl)morpholin-3-one], for which the “JAK3/AurB Fold Selectivity” value was 10-50 Fold and the concentration for half-maximal inhibition (IC50) is 100 to 1000 nM.

Regarding `O=C(c1cccc(Cn2ncc3cnc(Nc4cnn(CCO)c4)nc32)c1F)N1CCOCC1` [Example 85, (2-Fluoro-3-((6-((1-(2-hydroxyethyl)-1H-pyrazol-4-yl)amino)-1H-pyrazolo[3,4-d]pyrimidin-1-yl)methyl)phenyl)(morpholino)methanone], the “JAK3/AurB Fold Selectivity” value is above 50 Fold and the IC50 is 1000 to 10000 nM.

`Cn1cc(Nc2ncc3cnn(Cc4cc(N5CCNCC5)cc(F)c4F)c3n2)cn1` [Example 86, 1-(2,3-Difluoro-5-(piperazin-1-yl)benzyl)-N-(1-methyl-1H-pyrazol-4-yl)-1H-pyrazolo[3,4-d]pyrimidin-6-amine]: the “JAK3/AurB Fold Selectivity” value is recorded as 10-50 Fold and the IC50 fell in the range of 100 to 1000 nM.

Take `Cn1cc(Nc2ncc3cnn(Cc4cccc(C(=O)N5CCOCC5)c4F)c3n2)cn1` [Example 87, (2-Fluoro-3-((6-((1-methyl-1H-pyrazol-4-yl)amino)-1H-pyrazolo[3,4-d]pyrimidin-1-yl)methyl)phenyl)(morpholino)methanone]: the “JAK3/AurB Fold Selectivity” value is given as above 50 Fold and the IC50 is 1000 to 10000 nM.

As for `Cn1cc(Nc2ncc3cnn(Cc4cccc(N5CCOCC5O)c4)c3n2)cn1` (stereo not shown) [Example 88, 4-(3-((6-((1-Methyl-1H-pyrazol-4-yl)amino)-1H-pyrazolo[3,4-d]pyrimidin-1-yl)methyl)phenyl)morpholin-3-ol], the “JAK3/AurB Fold Selectivity” value is recorded as above 50 Fold and the IC50 lay within 1000 to 10000 nM.
